From patent US6906098B2, “Mixed steroidal 1,2,4,5-tetraoxane compounds and methods of making and using thereof” (priority 2002, dated 2005) come the findings set out here.

Assay [1] relates to Plasmodium falciparum chloroquine-susceptible strain D6. Kind of assay: In vitro antimalarial drug susceptibility assay (radiolabeled hypoxanthine incorporation), strain D6. It counts as cell-based. Particulars: for Strain D6 IC50: growth inhibition, chloroquine-susceptible strain D6, 66 h incubation; for IC50: Plasmodium falciparum, D6, 66 h, read-out: Strain D6 IC50, growth inhibition, chloroquine-susceptible strain D6, 66 h incubation.

Assay [2] relates to Plasmodium falciparum chloroquine-resistant strain W2. Kind of assay: microbe, parasite or virus in culture. Particulars: for IC50: Plasmodium falciparum, W2, 66 h, read-out: Strain W2 IC50, growth inhibition, chloroquine-resistant strain W2, 66 h incubation; for Strain W2 IC50: growth inhibition, chloroquine-resistant strain W2, 66 h incubation. The format is cell-based.
Assay [3] relates to D6 and W2 P. falciparum clones. The format is cell-based, Plasmodium falciparum. Particulars: IC50 (W2)/IC50 (D6) ratio.
Assay [4] relates to Mycobacterium tuberculosis H37Rv (ATCC 27294). As to the kind of experiment: Primary screen, Microplate Alamar Blue Assay (MABA), percent inhibition. The format is cell-based. Particulars: Table 5, Alamar assay, primary screening at 6.25 μg/ml; for inhibition at 6.25 µg/mL: Mycobacterium tuberculosis, read-out: % Inhib. An outline of the steps: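 Single-concentration screen at 6.25 μg/ml (or molar equivalent of the heaviest congener in a series) against H37Rv grown in BACTEC 12B medium. Growth read by Microplate Alamar Blue Assay, reported as percent inhibition.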
A general note: Resazurin is reduced to fluorescent resorufin, in cell work by metabolically active cells.

For a further assay, the system named is M. tuberculosis H37Rv. Kind of assay: Minimum inhibitory concentration (MIC) in the MABA. It counts as cell-based, Mycobacterium tuberculosis. Particulars: Table 5, Alamar assay, M. tuberculosis H37Rv. Put shortly: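 Run under the NIAID TAACF screening program against M. tuberculosis by fluorescence read-out. MIC taken as the lowest concentration giving 90% reduction in fluorescence relative to controls.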

Assay [5] relates to VERO cells. Particulars: ratio of IC50 in VERO cells to MIC (M. tuberculosis H37Rv).
The test system of assay [6] is VERO cells. Kind of assay: cells. Particulars: Chlorocebus sabaeus, Table 5.
Where [7] appears, read: Mycobacterium tuberculosis, H37RV, read-out: MIC.

In brackets after ≈: the same amount, converted by molar mass. Where two headings read alike, the source gives them in different places.

Regarding `CCC1CCC2(CC1)OOC1(CC[C@]3(C)C4C[C@H](OC(C)=O)[C@@]5(C)C(CC[C@@H]5C(C)CCC(N)=O)C4[C@H](OC(C)=O)C[C@@H]3C1)OO2` (single isomer, unassigned) [25/1C35, 7α,12α-Diacetoxy-5β-cholan-24-amide-3-spiro-6′-(1′,2′,4′,5′-tetraoxacyclohexane)-3′-spiro-1″-((4″R or S)-ethyl)cyclohexane], the “Strain D6 IC50” value in assay [1] was 5.44 ng/mL. Besides, the figures for the concentration for half-maximal inhibition (IC50) (in assay [2]; in the assay on VERO cells [6]) were 6.93 ng/mL (≈ 0.0107 µM) and 4.65 µg/mL (≈ 7.18 µM), respectively. In assay [3], the “Resistance Index” value amounted to 1.27. In addition, the inhibition at 6.25 µg/mL in assay [4] worked out at 100%. Besides, in the assay on M. tuberculosis H37Rv (setting [7]), the minimum inhibitory concentration (MIC) came to 3.13 µg/mL (≈ 4.83 µM). For the same compound, the “SI (selectivity index)” value in the assay on VERO cells [5] was determined as 1.48.

For the compound `COC(=O)CNC(=O)CCC(C)[C@H]1CCC2C3C(C[C@H](OC(C)=O)[C@@]21C)[C@@]1(C)CCC2(C[C@H]1C[C@H]3OC(C)=O)OOC1(CCCCC1)OO2` (stereo partly drawn) [12/1C21, N-(Methyl ethanoate-2-yl)-7α,12α-diacetoxy-5β-cholan-24-amide-3-spiro-6′-(1′,2′,4′,5′-tetraoxacyclohexane)-3′-spirocyclohexane], the half-maximal inhibitory concentration (IC50) in assay [1] worked out at 0.0152 µg/mL (≈ 0.022 µM); in assay [2] it was 7.45 ng/mL (≈ 0.0108 µM); in the assay with VERO cells [6] it was 5.42 µg/mL (≈ 7.83 µM). Moreover, the “Resistance Index” value was 0.49 in assay [3] and “ca. 0.5” in assay [3] (listed as 12). Moreover, the inhibition at 6.25 µg/mL in assay [4] stood at 99%. Moreover, the minimal inhibitory concentration (MIC) with M. tuberculosis H37Rv (setting [7]) stood at 6.25 µg/mL (≈ 9.03 µM). Moreover, the “SI (selectivity index)” value in the assay with VERO cells [5] is 0.87.

Turning to `CC(=O)O[C@H]1CC2C(C3CC[C@H](C(C)CCC(N)=O)[C@]31C)[C@H](OC(C)=O)C[C@@H]1CC3(CC[C@]21C)OOC1(CCCCC1)OO3` (stereo partly drawn) [10/1C19, 7α,12α-Diacetoxy-5β-cholan-24-amide-3-spiro-6′-(1′,2′,4′,5′-tetraoxacyclohexane)-3′-spirocyclohexane], the IC50 in assay [1] is 0.00733 µg/mL (≈ 0.0118 µM); in assay [2], 2.94 ng/mL (≈ 0.00474 µM); with VERO cells [6], 4.94 µg/mL (≈ 7.97 µM). Moreover, the “Resistance Index” value in assay [3] is given as 0.40. For the same compound, the inhibition at 6.25 µg/mL in assay [4] was determined as 99%. Also, in the assay with M. tuberculosis H37Rv (setting [7]), the minimal inhibitory concentration (MIC) turned out to be 6.25 µg/mL (≈ 10.1 µM). In the assay on VERO cells [5], the “SI (selectivity index)” value is reported as 0.79.

Consider `CCC1CCC2(CC1)OOC1(CC[C@]3(C)C4C[C@H](OC(C)=O)[C@@]5(C)C(CC[C@@H]5C(C)CCC(=O)O)C4[C@H](OC(C)=O)C[C@@H]3C1)OO2` (single isomer, unassigned) [9j/1C39, 7α,12α-Diacetoxy-5β-cholan-24-oic acid-3-spiro-6′-(1′,2′,4′,5′-tetraoxacyclohexane)-3′-spiro-1″-((4″S or R)-ethyl)cyclohexane], for which the “Strain D6 IC50” value in assay [1] came to 6.38 ng/mL. For the same compound, in assay [2], the “Strain W2 IC50” value amounted to 9.36 ng/mL. Besides, in assay [3], the “Resistance Index” value was 1.47. The “% Inhib” value in assay [4] is reported as 95%. Besides, the minimum inhibitory concentration (MIC) in the assay with M. tuberculosis H37Rv was determined as 6.25 µg/mL (≈ 9.63 µM). Further, the “SI (selectivity index)” value in the assay on VERO cells [5] was found to be 0.15. Also, in the assay on VERO cells [6], 0.95 µg/mL (≈ 1.46 µM) corresponded to half-maximal inhibition (IC50).

As to `CCCNC(=O)CCC(C)[C@H]1CCC2C3C(C[C@H](OC(C)=O)[C@@]21C)[C@@]1(C)CCC2(C[C@H]1C[C@H]3OC(C)=O)OOC1(CCC(CC)CC1)OO2` (single isomer, unassigned) [28/1C38, N-(n-Propyl)-7α,12α-Diacetoxy-5β-cholan-24-amide-3-spiro-6′-(1′,2′,4′,5′-tetraoxacyclohexane)-3′-spiro-1″-((4″R or S)-ethyl)cyclohexane], the “Strain D6 IC50” value in assay [1] is 5.76 ng/mL. In addition, in assay [2], the “Strain W2 IC50” value was 3.12 ng/mL. Besides, the “Resistance Index” value in assay [3] was 0.54. Also, the “% Inhib” value in assay [4] is listed as 92%. In addition, the minimum inhibitory concentration (MIC) in the assay with M. tuberculosis H37Rv (setting [7]) was found to be 6.25 µg/mL (≈ 9.06 µM). Besides, in the assay on VERO cells [5], the “SI (selectivity index)” value turned out to be 0.36. In addition, the IC50 in the assay with VERO cells [6] was 2.28 µg/mL (≈ 3.3 µM).

In the case of `CNC(=O)CCC(C)[C@H]1CCC2C3C(C[C@H](OC(C)=O)[C@@]21C)[C@@]1(C)CCC2(C[C@H]1C[C@H]3OC(C)=O)OOC1(CCCCC1C)OO2` (stereo partly drawn) [14/1C23, N-Methyl-7α,12α-diacetoxy-5β-cholan-24-amide-3-spiro-6′-(1′,2′,4′,5′-tetraoxacyclohexane)-3′-spiro-1″-(2″-methyl)cyclohexane], the figures for the 50% inhibitory concentration (IC50) (in assay [1]; in assay [2]; in the assay with VERO cells [6]) were 0.0102 µg/mL (≈ 0.0158 µM), 6.49 ng/mL (≈ 0.01 µM) and 5.63 µg/mL (≈ 8.69 µM), respectively. In assay [3], the “Resistance Index” value amounted to 0.64. The inhibition at 6.25 µg/mL in assay [4] worked out at 99%. Further, the MIC in the assay on M. tuberculosis H37Rv (setting [7]) is 3.13 µg/mL (≈ 4.83 µM). Also, the “SI (selectivity index)” value with VERO cells [5] stood at 1.8.

As for `CCNC(=O)CCC(C)[C@H]1CCC2C3C(C[C@H](OC(C)=O)[C@@]21C)[C@@]1(C)CCC2(C[C@H]1C[C@H]3OC(C)=O)OOC1(CCC(CC)CC1)OO2` (single isomer, unassigned) [27/1C37, N-Ethyl-7α,12α-Diacetoxy-5β-cholan-24-amide-3-spiro-6′-(1′,2′,4′,5′-tetraoxacyclohexane)-3′-spiro-1″-((4″R or S)-ethyl)cyclohexane], the IC50 came out at 0.0134 µg/mL (≈ 0.0198 µM) in assay [1], 6.46 ng/mL (≈ 0.00956 µM) in assay [2] and 1.91 µg/mL (≈ 2.83 µM) in the assay with VERO cells [6]. In addition, the “Resistance Index” value in assay [3] came to 0.48. The inhibition at 6.25 µg/mL in assay [4] worked out at 96%. In the assay on M. tuberculosis H37Rv, this compound yielded a minimum inhibitory concentration (MIC) of 1.56 µg/mL (≈ 2.31 µM). Further, the “SI (selectivity index)” value in the assay on VERO cells [5] came to 1.22.

In the case of `CCNC(=O)CCC(C)[C@H]1CCC2C3C(C[C@H](OC(C)=O)[C@@]21C)[C@@]1(C)CCC2(C[C@H]1C[C@H]3OC(C)=O)OOC1(CCCCC1C)OO2` (stereo partly drawn) [15/1C24, N-Ethyl-7α,12α-diacetoxy-5β-cholan-24-amide-3-spiro-6′-(1′,2′,4′,5′-tetraoxacyclohexane)-3′-spiro-1″-(2″-methyl)cyclohexane], the IC50 in assay [1] turned out to be 0.00837 µg/mL (≈ 0.0126 µM); in assay [2], 4.61 ng/mL (≈ 0.00697 µM); in the assay with VERO cells [6], 7.02 µg/mL (≈ 10.6 µM). In addition, in assay [3], the “Resistance Index” value is recorded as 0.55. For the same compound, the inhibition at 6.25 µg/mL in assay [4] is 98%. Moreover, the MIC with M. tuberculosis H37Rv (setting [7]) worked out at 3.13 µg/mL (≈ 4.73 µM). The “SI (selectivity index)” value in the assay on VERO cells [5] worked out at 2.24.

Broadly, the IC50 is the midpoint of a concentration-inhibition curve. As usually defined, the MIC is the lowest concentration that inhibits growth of the organism.
